Experimental data from US20110224252A1, “NOVEL IMIDAZOLE DERIVATIVES” (SYNGENTA CROP PROTECTION, INC., priority 2007, published 2011).

Tests used:
Type in all cases: in vivo
Uncinula necator = Uncinula necator / grape / preventive (action against powdery mildew on grape); conditions: Erysiphe necator, 168 h, spray, grape seedlings cv. Gutedel, assessed 7 days after inoculation, read-out: inhibit fungal infestation
Experimental: Uncinula necator/Grape/Preventive (Action Against Powdery Mildew on Grape) 5 weeks old grape seedlings cv. Gutedel are treated with the formulated test compound in a spray chamber. One day after application grape plants are inoculated by shaking plants infected with grape powdery mildew above the test plants. After an incubation period of 7 days at 24° C./22° C. and 70% r. h. under a light regime of 14/10 h (light/dark) the disease incidence is assessed.

Alternaria solani = Alternaria solani / tomato / preventive (action against Alternaria on tomato); conditions: 96 h, spray, tomato plants cv. Roter Gnom, assessed 4 days after inoculation, read-out: inhibit fungal infestation
Experimental: (§1) Alternaria solani/Tomato/Preventive (Action Against Alternaria on Tomato) 4 weeks old tomato plants cv. Roter Gnom are treated with the formulated test compound in a spray chamber. Two days after application tomato plants are inoculated by spraying a spore suspension on the test plants. After an incubation period of 4 days at 22° C./18° C. and 95% r. h. in a greenhouse the disease incidence is assessed.

Septoria tritici = Septoria tritici / wheat / preventive (action against Septoria leaf spot on wheat); conditions: Zymoseptoria tritici, spray, wheat plants cv. Riband, assessed 16-18 days after inoculation, read-out: inhibits fungal infestation
Experimental: Septoria tritici/Wheat/Preventive (Action Against Septoria Leaf Spot on Wheat) 2 weeks old wheat plants cv. Riband are treated with the formulated test compound in a spray chamber. One day after application wheat plants are inoculated by spraying a spore suspension (10^6 conidia/ml) on the test plants. After an incubation period of 1 day at 22° C./21° C. and 95% r. h. plants are kept at 22° C./21° C. and 70% r.h. in a greenhouse. The disease incidence is assessed 16-18 days after inoculation.

Botrytis cinerea = Botrytis cinerea / tomato / preventive (action against Botrytis on tomato); conditions: 72 h, spray, tomato plants cv. Roter Gnom, assessed 3 days after inoculation, read-out: inhibit fungal infestation
Experimental: as §1, with “Botrytis cinerea/Tomato/Preventive (Action” for “Alternaria solani/Tomato/Preventive (Action”, “Against Botrytis” for “Against Alternaria”, “of 3” for “of 4”, “at 20°” for “at 22° C./18°”

Puccinia recondita = Puccinia recondita / wheat / preventive (action against brown rust on wheat); conditions: 264 h, spray, wheat plants cv. Arina, assessed 11 days after inoculation, read-out: inhibit fungal infestation
Experimental: Puccinia recondita/Wheat/Preventive (Action Against Brown Rust on Wheat) 1 week old wheat plants cv. Arina are treated with the formulated test compound in a spray chamber. One day after application wheat plants are inoculated by spraying a spore suspension ([…] uredospores/ml) on the test plants. After an incubation period of 1 day at 20° C. and 95% r. h. plants are kept for 10 days 20° C./18° C. (day/night) and 60% r.h. in a greenhouse. The disease incidence is assessed 11 days after inoculation.

Measured: inhibition at 200 ppm

Clc1cnc(-n2c(Cl)nc(Cl)c2-c2ccc(Br)cc2)c(Cl)c1 [I.s.034, 2-[5-(4-Bromo-phenyl)-2,4-dichloro-imidazol-1-yl]-3,5-dichloro-pyridine]
not listed: Puccinia recondita
≥ 80%: all other assays above

Cc1nc(Cl)n(-c2ncc(Cl)cc2Cl)c1-c1ccc(Br)cc1 [I.s.035, 2-[5-(4-Bromo-phenyl)-2-chloro-4-methyl-imidazol-1-yl]-3,5-dichloro-pyridine]
not listed: Botrytis cinerea
≥ 80%: all other assays above

Cc1nc(Cl)n(-c2ncc(Cl)cc2Cl)c1-c1ccc(Cl)nc1 [I.s.210, 3,5-Dichloro-2-[2-chloro-5-(6-chloro-pyridin-3-yl)-4-methyl-imidazol-1-yl]-pyridine]
≥ 80%: Uncinula necator | Alternaria solani | Septoria tritici
